From US9573899B2, “USP7 inhibitor compounds and methods of use” (Genentech, Inc., priority 2015, dated 2017) come the findings set out here.

Bounds are passed on as bounds.

In the assay the target is T1, USP7, full-length, native C-Terminus (Homo sapiens, UniProt Q93009).
T1 construct: USP7, full-length, native C-Terminus, 0.2 nM
T1 sequence (Q93009 whole entry): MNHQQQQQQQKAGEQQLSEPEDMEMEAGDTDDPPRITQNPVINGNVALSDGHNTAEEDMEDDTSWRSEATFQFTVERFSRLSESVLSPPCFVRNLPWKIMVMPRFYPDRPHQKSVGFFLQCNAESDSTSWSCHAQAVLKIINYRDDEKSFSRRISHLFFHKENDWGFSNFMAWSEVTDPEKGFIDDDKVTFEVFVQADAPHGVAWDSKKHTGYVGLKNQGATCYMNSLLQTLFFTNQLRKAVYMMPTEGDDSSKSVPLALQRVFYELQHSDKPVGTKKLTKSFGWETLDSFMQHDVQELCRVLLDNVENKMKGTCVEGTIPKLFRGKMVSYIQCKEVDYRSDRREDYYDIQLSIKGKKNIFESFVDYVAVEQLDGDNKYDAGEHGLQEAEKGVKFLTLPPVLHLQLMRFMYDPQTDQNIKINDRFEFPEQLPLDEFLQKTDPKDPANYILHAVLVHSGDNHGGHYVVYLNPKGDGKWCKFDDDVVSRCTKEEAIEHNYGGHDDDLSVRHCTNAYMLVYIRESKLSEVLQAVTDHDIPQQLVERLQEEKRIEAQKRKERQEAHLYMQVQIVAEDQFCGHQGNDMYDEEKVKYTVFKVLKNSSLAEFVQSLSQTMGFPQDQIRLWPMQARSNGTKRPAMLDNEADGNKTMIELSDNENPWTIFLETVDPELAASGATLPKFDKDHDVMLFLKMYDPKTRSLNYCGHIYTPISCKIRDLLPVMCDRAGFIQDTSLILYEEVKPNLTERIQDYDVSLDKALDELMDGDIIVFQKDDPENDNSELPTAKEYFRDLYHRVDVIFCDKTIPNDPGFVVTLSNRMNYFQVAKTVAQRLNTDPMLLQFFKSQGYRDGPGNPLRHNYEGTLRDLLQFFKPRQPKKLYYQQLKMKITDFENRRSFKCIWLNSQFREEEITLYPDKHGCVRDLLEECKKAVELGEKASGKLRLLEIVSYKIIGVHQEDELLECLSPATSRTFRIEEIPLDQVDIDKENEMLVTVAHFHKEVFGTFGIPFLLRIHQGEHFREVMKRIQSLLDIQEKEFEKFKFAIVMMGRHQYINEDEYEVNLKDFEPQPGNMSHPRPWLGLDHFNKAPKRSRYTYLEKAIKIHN
The assay can be described thus: Biochemical USP7 assay with Ubiquitin-Rho110 substrate, compounds pre-incubated with USP7 (USP7_Ub-Rho preInc). The following applies: compounds pre-mixed with USP7, 1 hour incubation, before substrate; read-out: USP7 Ub-Rho preInc (IC50). As for the experimental part:
Biochemical USP7 assays using Ubiquitin-Rho110 as a substrate: The final assay conditions were as follows: The Reaction Buffer consisted of: 50 mM Tris (pH 7.5), 0.01% (v/v) Triton X-100, 2.5 mM Dithiothreitol, 0.1% (w/v) bovine gamma globulin (Sigma cat #G5009-25G); USP7, full-length, native C-Terminus, 0.2 nM; the substrate, Ubiquitin-Rho110 (Boston Biochem cat #U-555), 1 uM. Reactions were carried out for 1 hour at room temperature, in black 20 μL volume polystyrene ProxiPlate 384 F Plus® (PerkinElmer cat #6008260).
Test compounds, including a control USP7 inhibitor (Ub-aldehyde, Boston Biochem cat #U-201) were serially diluted in DMSO, in 384 well clear V-bottom polypropylene plates (Greiner cat #781280). Compounds in DMSO were diluted 10-fold into Reaction Buffer, to achieve 3-fold the final desired concentration. The substrate, Ubiquitin-Rho110 (Boston Biochem cat #U-555), was prepared at 3 μM (3-fold the final concentration) and 5 ul was dispensed into the reaction plate. 5 ul of the compounds (diluted in Reaction Buffer at 3-fold the final concentration) were transferred to the reaction plate. 5 ul of 0.6 nM USP7 (diluted in Reaction Buffer at 3-fold the final concentration) was transferred to the reaction plate to initiate the reaction. After 1 hour incubation at room temperature the reaction was quenched by the addition of 5 ul of 400 mM acetic acid. The enzymatic product was measured by quantifying the fluorescence signal of cleaved Rhodamine-110 using excitation at 485 nm and emission at 535 nm. When pre-incubation of USP7 with compounds was required, the order of addition of reagents was modified to pre-mix the compounds with USP7 (with a 1 hour incubation period), prior to the addition of the substrate and the initiation of the reaction period. Percentage inhibition values were calculated relative to a no enzyme control and a uninhibited enzyme control. Curve fitting and IC50 calculations were carried out using Genedata Screener software.
`CCc1c(-c2ccc(C#N)cc2)cnc(N)c1-c1ccc(O)cc1` [Compound 51, 4-[6-amino-4-ethyl-5-(4-hydroxyphenyl)-3-pyridyl]benzonitrile]: the IC50 turned out to be 44.2 µM.

For the compound `CCc1c(-c2cccc(OC)c2)cnc(N)c1-c1ccc(O)cc1` [Compound 52, 4-[2-amino-4-ethyl-5-(3-methoxyphenyl)-3-pyridyl]phenol], the IC50 turned out to be 50.1 µM. To `CCc1c(-c2ccc(OC)cc2)cnc(N)c1-c1ccc(O)cc1` [Compound 53, 4-[2-amino-4-ethyl-5-(4-methoxyphenyl)-3-pyridyl]phenol] belongs > 20 µM.

For `CCc1c(-c2cccc(C(=O)N(C)C)c2)cnc(N)c1-c1ccc(O)cc1` [Compound 54, 3-[6-amino-4-ethyl-5-(4-hydroxyphenyl)-3-pyridyl]-N,N-dimethyl-benzamide], the IC50 turned out to be 161 µM. To `CCc1c(-c2ccc(CO)cc2)cnc(N)c1-c1ccc(O)cc1` [Compound 55, 4-[2-amino-4-ethyl-5-[4-(hydroxymethyl)phenyl]-3-pyridyl]phenol] belongs > 20 µM. To `CCc1c(-c2cccc(C)c2)cnc(N)c1-c1ccc(O)cc1` [Compound 57, 4-[2-amino-4-ethyl-5-(m-tolyl)-3-pyridyl]phenol] belongs > 20 µM; to `CCc1c(-c2ccc(=O)[nH]c2)cnc(N)c1-c1ccc(O)cc1` [Compound 58, 5-[6-amino-4-ethyl-5-(4-hydroxyphenyl)-3-pyridyl]-1H-pyridin-2-one], 93.3 µM.

With `CCc1c(-c2ccc(O)cc2)cnc(N)c1-c1ccc2[nH]nc(C)c2c1` [Compound 59, 4-[6-amino-4-ethyl-5-(3-methyl-1H-indazol-5-yl)-3-pyridyl]phenol], the IC50 was 19.3 µM. To `CCc1c(-c2ccc(C(=O)N3CCOCC3)cc2)cnc(N)c1-c1ccc(O)cc1` [Compound 60, [4-[6-amino-4-ethyl-5-(4-hydroxyphenyl)-3-pyridyl]phenyl]-morpholino-methanone] belongs 167 µM; to `CCc1c(-c2ccc(C#N)nc2)cnc(N)c1-c1ccc(O)cc1` [Compound 62, 5-[6-amino-4-ethyl-5-(4-hydroxyphenyl)-3-pyridyl]pyridine-2-carbonitrile], 39.2 µM; to `CCc1c(-c2cncc(C#N)c2)cnc(N)c1-c1ccc(O)cc1` [Compound 63, 5-[6-amino-4-ethyl-5-(4-hydroxyphenyl)-3-pyridyl]pyridine-3-carbonitrile], 11.7 µM. To `CCc1c(-c2cccc(C(=O)N3CCCC3)c2)cnc(N)c1-c1ccc(O)cc1` [Compound 64, [3-[6-amino-4-ethyl-5-(4-hydroxyphenyl)-3-pyridyl]phenyl]-pyrrolidin-1-yl-methanone] belongs > 63.3 µM. To `CCc1c(-c2ccc(C(=O)NC3CC3)cc2)cnc(N)c1-c1ccc(O)cc1` [Compound 65, 4-[6-amino-4-ethyl-5-(4-hydroxyphenyl)-3-pyridyl]-N-cyclopropyl-benzamide] belongs 7.7 µM. For `CCc1c(-c2cccc(CC#N)c2)cnc(N)c1-c1ccc(O)cc1` [Compound 66, 2-[3-[6-amino-4-ethyl-5-(4-hydroxyphenyl)-3-pyridyl]phenyl]acetonitrile], the IC50 worked out at 18.3 µM. With `CCc1c(-c2ccc(C#N)c(F)c2)cnc(N)c1-c1ccc(O)cc1` [Compound 67, 4-[6-amino-4-ethyl-5-(4-hydroxyphenyl)-3-pyridyl]-2-fluoro-benzonitrile], the IC50 is 45 µM. To `CCc1c(-c2ccc(OC)nc2)cnc(N)c1-c1ccc(O)cc1` [Compound 68, 4-[2-amino-4-ethyl-5-(6-methoxy-3-pyridyl)-3-pyridyl]phenol] belongs > 63.3 µM; to `CCc1c(-c2cccc(C(=O)NC(C)C)c2)cnc(N)c1-c1ccc(O)cc1` [Compound 69, 3-[6-amino-4-ethyl-5-(4-hydroxyphenyl)-3-pyridyl]-N-isopropyl-benzamide], > 63.3 µM. To `CCc1c(-c2ccc(CNS(C)(=O)=O)cc2)cnc(N)c1-c1ccc(O)cc1` [Compound 70, N-[[4-[6-amino-4-ethyl-5-(4-hydroxyphenyl)-3-pyridyl]phenyl]methyl]methanesulfonamide] belongs 34.4 µM. Regarding `CCc1c(-c2cnn(CC(C)C)c2)cnc(N)c1-c1ccc(O)cc1` [Compound 71, 4-[2-amino-4-ethyl-5-(1-isobutylpyrazol-4-yl)-3-pyridyl]phenol], the IC50 was 70.6 µM.

With `CCc1c(-c2ccc(O)cc2)cnc(N)c1-c1ccc(O)c(C#N)c1` [Compound 72, 5-[2-amino-4-ethyl-5-(4-hydroxyphenyl)-3-pyridyl]-2-hydroxy-benzonitrile], the IC50 worked out at 12.5 µM.

Regarding `CCc1c(-c2ccnc(C)c2)cnc(N)c1-c1ccc(O)cc1` [Compound 73, 4-[2-amino-4-ethyl-5-(2-methyl-4-pyridyl)-3-pyridyl]phenol], the IC50 amounted to 47.3 µM. To `CCc1c(-c2cccc(C(F)F)c2)cnc(N)c1-c1ccc(O)cc1` [Compound 74, 4-[2-amino-5-[3-(difluoromethyl)phenyl]-4-ethyl-3-pyridyl]phenol] belongs 7.8 µM. To `CCc1c(-c2ccc(NC(C)=O)nc2)cnc(N)c1-c1ccc(O)cc1` [Compound 75, N-[5-[6-amino-4-ethyl-5-(4-hydroxyphenyl)-3-pyridyl]-2-pyridyl]acetamide] belongs 3.6 µM; to `CCc1c(-c2cc(F)cc(F)c2)cnc(N)c1-c1ccc(O)cc1` [Compound 76, 4-[2-amino-5-(3,5-difluorophenyl)-4-ethyl-3-pyridyl]phenol], > 20 µM. To `CCc1c(-c2cccc(Cl)c2)cnc(N)c1-c1ccc(O)cc1` [Compound 77, 4-[2-amino-5-(3-chlorophenyl)-4-ethyl-3-pyridyl]phenol] belongs 11 µM; to `CCc1c(-c2ccccc2Cl)cnc(N)c1-c1ccc(O)cc1` [Compound 78, 4-[2-amino-5-(2-chlorophenyl)-4-ethyl-3-pyridyl]phenol], 15.7 µM; to `CCc1c(-c2ccc(F)c(C)c2)cnc(N)c1-c1ccc(O)cc1` [Compound 79, 4-[2-amino-4-ethyl-5-(4-fluoro-3-methyl-phenyl)-3-pyridyl]phenol], > 20 µM.

Regarding `CCc1c(-c2ccc(Cl)cc2)cnc(N)c1-c1ccc(O)cc1` [Compound 80, 4-[2-amino-5-(4-chlorophenyl)-4-ethyl-3-pyridyl]phenol], the 50% inhibitory concentration (IC50) turned out to be 17.6 µM. To `CCc1c(-c2cccc(CN3CCOCC3)c2)cnc(N)c1-c1ccc(O)cc1` [Compound 82, 4-[2-amino-4-ethyl-5-[3-(morpholinomethyl)phenyl]-3-pyridyl]phenol] belongs 18.2 µM. To `CCc1c(-c2cnc(OC)nc2)cnc(N)c1-c1ccc(O)cc1` [Compound 83, 4-[2-amino-4-ethyl-5-(2-methoxypyrimidin-5-yl)-3-pyridyl]phenol] belongs 136 µM; to `CCc1c(-c2ccc3cn[nH]c3c2)cnc(N)c1-c1ccc(O)cc1` [Compound 84, 4-[2-amino-4-ethyl-5-(1H-indazol-6-yl)-3-pyridyl]phenol], 7.2 µM; to `CCc1c(-c2cccc3nn(C)cc23)cnc(N)c1-c1ccc(O)cc1` [Compound 85, 4-[2-amino-4-ethyl-5-(2-methylindazol-4-yl)-3-pyridyl]phenol], 14.6 µM. To `CCc1c(-c2ccc3[nH]c(C)nc3c2)cnc(N)c1-c1ccc(O)cc1` [Compound 86, 4-[2-amino-4-ethyl-5-(2-methyl-1H-benzimidazol-5-yl)-3-pyridyl]phenol] belongs 13.5 µM; to `CCc1c(-c2ccc(O)cc2)cnc(N)c1-c1ccc2[nH]ncc2c1` [Compound 87, 4-[6-amino-4-ethyl-5-(1H-indazol-5-yl)-3-pyridyl]phenol], 2.1 µM. `CCc1c(-c2cccc(N)c2)cnc(N)c1-c1ccc(O)cc1` [Compound 90, 4-[2-amino-5-(3-aminophenyl)-4-ethyl-3-pyridyl]phenol]: the IC50 stood at 19.2 µM. To `CCc1c(-c2ccc(N)cc2)cnc(N)c1-c1ccc(O)cc1` [Compound 91, 4-[2-amino-5-(4-aminophenyl)-4-ethyl-3-pyridyl]phenol] belongs 47 µM; to `CCc1c(-c2ccc(O)cc2)cnc(N)c1-c1ccc2cn[nH]c2c1` [Compound 93, 4-[6-amino-4-ethyl-5-(1H-indazol-6-yl)-3-pyridyl]phenol], 13.8 µM.

As for `CCc1c(-c2ccc(O)c(C#N)c2)cnc(N)c1-c1ccc(O)cc1` [Compound 94, 5-[6-amino-4-ethyl-5-(4-hydroxyphenyl)-3-pyridyl]-2-hydroxy-benzonitrile], the IC50 came out at 9.6 µM. To `CCc1c(-c2ccc(O)c(C(N)=O)c2)cnc(N)c1-c1ccc(O)cc1` [Compound 95, 5-[6-amino-4-ethyl-5-(4-hydroxyphenyl)-3-pyridyl]-2-hydroxy-benzamide] belongs 106 µM.

For orientation: IC50 means the concentration needed to halve the response being measured.
